Patent US20260167972A1, “AMINO ACID DERIVATIVES AS NOVEL DELIVERY AGENTS FOR FUNCTIONAL DELIVERY OF OLIGONUCLEOTIDES” (University of Rochester, priority 2022, published 2026)

System: not listed separately
Assay: Dynamic light scattering of N-X-Phe-DAP/siRNA nanoparticles
Type: physicochemical
Conditions: DLS and TEM
Description: Each N-X-Phe-DAP derivative (100 μM) was mixed with siRNA (600 nM) in H2O for 30 minutes, followed by dilution of this mixture into DMEM cell culture media to final concentrations of 5 μM N-X-Phe-DAP derivative and 30 nM siRNA. Dynamic light scattering (DLS) and transmission electron microscopy (TEM) were utilized to analyze the physical characteristics of the resulting N-X-Phe-DAP/siRNA nanoparticles (Table 2, FIG. 4). […] Average diameter (nm), determined by dynamic light scattering (DLS) and TEM imaging, is reported as the average of […] with the error reported as the standard deviation of the mean. Binding affinity (Kd) of each agent to siRNA was determined by a slot blot filtration assay with values reported as the average of three measurements and error reported as the standard deviation of the mean. […] (B) Diameter (nm) determined by TEM (n=9, ***p≤0.001 ****p≤0.0001).
Dynamic Light Scattering: N-X-Phe-DAP derivatives (100 μM) were complexed with siRNA (600 nM) in Ultrapure™ DNase/RNase-Free Distilled Water (Invitrogen 10977015) and allowed to incubate for 30 minutes at room temperature. These solutions were then diluted into water to give final concentrations of 5 μM Phe derivative and 30 nM siRNA. Dynamic light scattering measurements were taken using a DynaPro Plate Reader II. Diameter is reported as an average of 10 measurements using Dynamics software.

SMILES | diameter of siRNA nanoparticles by DLS and TEM measurements [nm]
NCCCNC(=O)[C@H](Cc1ccccc1)NC(=O)C1CCCCC1 [Cyc-Phe-DAP] | ~100
NCCCNC(=O)[C@H](Cc1ccccc1)NC(=O)OCc1ccccc1 [Cbz-Phe-DAP] | ~100

Same assay, conditions: N-X-Phe-DAP/siRNA nanoparticles; 5 μM derivative, 30 nM siRNA; ± standard deviation

SMILES | Diameter (nm), DLS [nm]
NCCCNC(=O)[C@H](Cc1ccccc1)NC(=O)Cc1ccc2ccccc2c1 [2-Nap-Phe-DAP] | 416 ± 33
NCCCNC(=O)[C@H](Cc1cccc(F)c1)NC(=O)OCC1c2ccccc2-c2ccccc21 [Fmoc-3F-Phe-DAP] | 228 ± 18
NCCCNC(=O)[C@H](Cc1c(F)c(F)c(F)c(F)c1F)NC(=O)OCC1c2ccccc2-c2ccccc21 [Fmoc-F5-Phe-DAP] | 202 ± 15
NCCCNC(=O)[C@H](Cc1ccccc1)NC(=O)C1CCCCC1 [Cyc-Phe-DAP] | 125 ± 74
NCCCNC(=O)[C@H](Cc1ccccc1)NC(=O)OCc1ccccc1 [Cbz-Phe-DAP] | 94 ± 14
NCCCNC(=O)[C@H](Cc1ccccc1)NC(=O)CC1c2ccccc2-c2ccccc21 [Fm-Phe-DAP] | 139 ± 14
CCCCCCC(=O)N[C@@H](Cc1ccccc1)C(=O)NCCCN [Hex-Phe-DAP] | 50 ± 6
NCCCNC(=O)[C@H](Cc1ccccc1)NC(=O)OCC1c2ccccc2-c2ccccc21 [Fmoc-Phe-DAP] | 156 ± 13
NCCCNC(=O)[C@H](Cc1ccccc1)NC(=O)CCCc1ccc2ccc3cccc4ccc1c2c34 [Pyr-Phe-DAP] | 105 ± 8
NCCCNC(=O)[C@H](Cc1ccccc1)NC(=O)Cc1cccc2ccccc12 [1-Nap-Phe-DAP] | 221 ± 26

Target: FITC-siRNA
Assay: Slot blot filtration binding affinity assay
Conditions: binding to siRNA (FITC-siRNA); average of three measurements ± standard deviation
Description: The binding affinity (Kd) of N-X-Phe-DAP derivatives to siRNA was next characterized to determine how the chemical functionality of the Phe derivatives impacts siRNA interactions. Comparative binding affinity (Kd) of N-X-Phe-DAP derivatives to fluorescently labeled FITC-siRNA was determined using a slot blot filtration assay (Table 2). […] Therefore, the decrease in binding affinity of Fmoc-F5-Phe-DAP for siRNA is likely due to competition between siRNA binding and self-assembly.
Slot Blot Binding Affinity Measurements (see FIGS. 39-48): Nitrocellulose (Bio-Rad, #1620112) and nylon membranes (VWR, #95038-400) were soaked in 100 mM Tris-HCl buffer for 20 minutes. The membranes were then stacked on two sheets of Bio-Rad SF thick filter paper (#1620161) in a Bio-Rad SF 48-well slot blot apparatus. 200 μL of 100 mM Tris-HCl buffer was added to each well to test for even vacuum distribution and for membrane rehydration three times. N-X-Phe-DAP derivatives were prepared in concentrations ranging from 4000 μM to 0 μM and incubated with FITC-siRNA (6.5 μL, 1 μM) for 30 minutes in the dark. 40 μL of each sample, in addition to 200 μL Tris-HCl buffer was run in triplicate and the apparatus was covered with aluminum foil for 20 minutes. The vacuum was opened, allowing for samples in the wells to penetrate the membranes. After closing the vacuum, 200 μL of Tris-HCl buffer was added to rinse each well followed by re-opening of the vacuum three times. Membranes were then dried and imaged on Bio-Rad ChemiDoc MS. Fluorescence intensity density measurements were made using Image J. The fraction bound of siRNA was calculated using the following equation, where Initro is the fluorescence intensity measured from the nitrocellulose membrane and Inylon is the fluorescence intensity measured from the nylon membrane:
This equation is as follows where Y is the fraction bound, X is the N-X-Phe-DAP concentration (μM), Bmax is the maximum binding, Kd is the binding affinity, and h is the Hill slope: […]

SMILES | Kd [µM]
NCCCNC(=O)[C@H](Cc1ccccc1)NC(=O)Cc1ccc2ccccc2c1 [2-Nap-Phe-DAP] | 186
NCCCNC(=O)[C@H](Cc1cccc(F)c1)NC(=O)OCC1c2ccccc2-c2ccccc21 [Fmoc-3F-Phe-DAP] | 131
NCCCNC(=O)[C@H](Cc1c(F)c(F)c(F)c(F)c1F)NC(=O)OCC1c2ccccc2-c2ccccc21 [Fmoc-F5-Phe-DAP] | 217
NCCCNC(=O)[C@H](Cc1ccccc1)NC(=O)C1CCCCC1 [Cyc-Phe-DAP] | 179 ± 8
NCCCNC(=O)[C@H](Cc1ccccc1)NC(=O)OCc1ccccc1 [Cbz-Phe-DAP] | 97
NCCCNC(=O)[C@H](Cc1ccccc1)NC(=O)CC1c2ccccc2-c2ccccc21 [Fm-Phe-DAP] | 307 ± 34
CCCCCCC(=O)N[C@@H](Cc1ccccc1)C(=O)NCCCN [Hex-Phe-DAP] | 183 ± 9
NCCCNC(=O)[C@H](Cc1ccccc1)NC(=O)OCC1c2ccccc2-c2ccccc21 [Fmoc-Phe-DAP] | 159
NCCCNC(=O)[C@H](Cc1ccccc1)NC(=O)CCCc1ccc2ccc3cccc4ccc1c2c34 [Pyr-Phe-DAP] | 32
NCCCNC(=O)[C@H](Cc1ccccc1)NC(=O)Cc1cccc2ccccc12 [1-Nap-Phe-DAP] | 293

System: cells
Assay: Delivery of fluorescent protein encoding mRNA and plasmid DNA into cells (FIG. 50)
Type: cell-based
Conditions: 14 nM 1-Nap-Phe-DAP, 1 microgram mRNA, 24 hours; FIG. 50 panel A
Description: FIG. 50 has images of cells treated with a mixture of 1-Nap-Phe-DAP with fluorescent protein encoding mRNA (panel A) and plasmid DNA (panel B). […] In this example, 14 nM of the 1-Nap-Phe-DAP was used with 1 microgram of mRNA or pDNA for 24 hours, after which the cells were images.

SMILES | delivery of fluorescent protein encoding mRNA into cells
NCCCNC(=O)[C@H](Cc1ccccc1)NC(=O)Cc1cccc2ccccc12 [1-Nap-Phe-DAP] | fluorescence visible in the cytosol

Same assay, conditions: 14 nM 1-Nap-Phe-DAP, 1 microgram pDNA, 24 hours; FIG. 50 panel B

SMILES | delivery of plasmid DNA into cells
NCCCNC(=O)[C@H](Cc1ccccc1)NC(=O)Cc1cccc2ccccc12 [1-Nap-Phe-DAP] | fluorescence visible in the cytosol
